In patent US11041184B2, “Mycobacteriophages capable of delivering auto-luminescent elements and uses thereof” (priority 2016, dated 2021):

Test system: Mtb
Assay: detecting sensitivity of a host bacterial strain (Mtb) to a drug with the ARP phage, luminescence read with a luminometer
Type: cell-based, Mycobacterium tuberculosis
Conditions: for bioluminescence intensity compared to a control: culture at 37° C. for at least 4 hours, DMSO control
[1] = 37° C., at least 4 hours, RIF 2 μg/mL, INH 1 μg/mL, LZD 1 μg/mL, PNU 0.5 μg/mL
[2] = FIG. 12, RIF 2 μg/mL, INH 1 μg/mL, LZD 1 μg/mL, PNU 0.5 μg/mL

SMILES	sensitivity of Mtb to the drug at the concentration [1]	bioluminescence intensity compared to a control [2]	bioluminescence compared to a control (FIG. 12, culture for 8 hours, EMB 5 μg/mL)	statistical difference between drug group and DMSO control (n.s., p>0.05) (FIG. 12 legend, EMB 5 μg/mL, time not printed in legend)	sensitivity of Mtb to the drug at the concentration (culture for 8 hours, EMB 5 μg/mL)
NNC(=O)c1ccncc1 [isoniazid]	sensitivities	significant decrease of bioluminescence intensity			
CC(=O)NC[C@H]1CN(c2ccc(N3CCOCC3)c(F)c2)C(=O)O1 [linezolid]	sensitivities	significant decrease of bioluminescence intensity			
CC[C@@H](CO)NCCN[C@@H](CC)CO [ethambutol]			significant decrease in bioluminescence	no statistical difference	sensitivity
